Experimental data: patent US11123340B2, “Small-molecule UT-A-selective urea transport inhibitors” (The Regents of the University of California, priority 2014, dated 2021)
Converted amounts (≈) assume the structure as drawn. Where two headings read alike, the source gives them in different places.

Assays:
Solubility = assay type: physicochemical
Experimental: Several vehicles and administration routes were tested in order to give predicted therapeutic inhibitor concentrations in blood and urine. […] Because of the alkaline pH of the administered compounds the vehicle control for UTAinh-F11 was 20% dimethylacetamide and 1.2 mg/mL NaHCO3 in saline to give identical pH. […] Urine levels of UTAinh-F11 were >3 μM over 6 h.
(§1) Compound toxicity was evaluated by compound incubation for 24 h with MDCK cell cultures followed by Alamar blue assay. […] To assess potential ion channel off-target effects, short-circuit current was measured in MDCK cells in response to cAMP (forskolin) and calcium (ATP) agonists (FIG. 5C, right), which depends on the actions of multiple anion (CFTR, calcium-activated chloride channels) and cation (K^+, Na^+) channels.

UT-A1 = target: T1, UT-A1 (Rattus norvegicus, UniProt Q62668); experiment: Transepithelial urea transport in UT-A1-expressing MDCK cells on porous filters; assay type: cell-based; details: 3 μM inhibitor, forskolin 10 μM
T1 construct: expressed in transfected cells; host or cells: MDCK cells
T1 sequence (Q62668 1-929): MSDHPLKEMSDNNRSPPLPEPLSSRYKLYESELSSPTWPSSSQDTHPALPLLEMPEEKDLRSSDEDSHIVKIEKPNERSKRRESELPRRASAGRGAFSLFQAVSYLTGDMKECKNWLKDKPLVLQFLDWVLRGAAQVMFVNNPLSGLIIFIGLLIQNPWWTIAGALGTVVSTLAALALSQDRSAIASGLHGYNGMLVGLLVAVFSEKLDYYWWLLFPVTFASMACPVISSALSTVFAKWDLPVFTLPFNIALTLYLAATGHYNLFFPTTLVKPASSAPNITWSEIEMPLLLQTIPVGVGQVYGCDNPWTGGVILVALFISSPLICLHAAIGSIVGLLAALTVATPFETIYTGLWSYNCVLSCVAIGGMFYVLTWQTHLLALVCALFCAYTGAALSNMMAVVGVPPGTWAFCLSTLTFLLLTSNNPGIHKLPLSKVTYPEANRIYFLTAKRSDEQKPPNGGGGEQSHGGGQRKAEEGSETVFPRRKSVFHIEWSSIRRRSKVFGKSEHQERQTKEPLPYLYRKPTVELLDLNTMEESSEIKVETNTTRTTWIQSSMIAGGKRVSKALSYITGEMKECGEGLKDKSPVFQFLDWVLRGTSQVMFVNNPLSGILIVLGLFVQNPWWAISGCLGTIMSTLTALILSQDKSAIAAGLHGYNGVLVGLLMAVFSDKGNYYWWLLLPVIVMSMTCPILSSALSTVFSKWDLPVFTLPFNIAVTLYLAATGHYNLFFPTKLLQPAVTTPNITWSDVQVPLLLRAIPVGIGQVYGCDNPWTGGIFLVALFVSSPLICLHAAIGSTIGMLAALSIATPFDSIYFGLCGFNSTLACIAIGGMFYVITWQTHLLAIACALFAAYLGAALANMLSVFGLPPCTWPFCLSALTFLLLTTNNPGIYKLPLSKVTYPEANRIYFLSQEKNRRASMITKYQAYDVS
Experimental: (§2) UT-A1 expressing MDCK cells were grown on 12-mm diameter collagen-coated Transwell inserts (0.4 μm pore size; Costar, Costar, N.Y.) to form tight monolayers (resistance>500 Ωcm^2), as described (see, e.g., Levin et al. (2007) FASEB J. 21, 551-563). Urea flux in the basolateral-to-apical direction was measured in response to a 15 mM urea gradient in which PBS containing forskolin (10 μM), with or without UT-A1 inhibitor and 0.7 mM phloretin, was added to both the apical-facing (0.2 mL) and basal-facing (2 mL) surfaces. After 30 min the basal-facing solution was replaced by PBS containing test compound+15 mM urea. Apical fluid samples (5 μL) were collected at specified times for enzymatic assay of urea (QUANTICHROME Urea Assay Kit; BioAssay Systems, Hayward, Calif.). To measure inhibitor permeability across MDCK cell layers, compounds (20 μM) were added on the basal-facing surface and fluid samples (20 μL) from the apical-facing surface were collected at different time points and analyzed by LC/MS.
Transepithelial urea transport from the basolateral to the apical solution was measured by enzymatic assay of urea in the apical solution following urea addition to the basal-facing solution.

MDCK cells = experiment: Cell toxicity, Alamar blue assay; assay type: cell-based, canine; details: 24 h, up to 25 μM
Experimental: MDCK cells on black 96-well Costar microplates with clear plastic bottoms were cultured for 24 h at 37° C. and incubated with test compounds (0 to 25 μM) for 24 h. Cell viability was assayed using AlamarBlue (Pierce, Rockford, Ill.) in which the reagent was added to each well, incubated for 30 min, and absorbance measured at 590 nm. For short-circuit current measurement, snapwell inserts containing MDCK cells were mounted on Ussing chambers. Test compounds (20 μM) were incubated with MDCK cells at both apical and basolateral sides for 10 min at 37° C. prior to addition of 20 μM forskolin and then 100 μM ATP. The apical and basolateral chambers contained identical solutions: 120 mM NaCl, 5 mM KCl, 1 mM MgCl2, 1 mM CaCl2, 5 mM HEPES, 25 mM NaHCO3 and 10 mM glucose. Solutions were bubbled with 5% CO2/95% O2 and maintained at 37° C. […]
as §1

MDCK cell monolayers = experiment: Inhibitor permeability across MDCK cell monolayers (LC/MS); assay type: in vitro ADME, canine; details: computed from surface-to-volume considerations
Experimental: as §2
To further evaluate the potential site of inhibitor action, the kinetics of UT-A1 inhibition was measured by assay of UT-A1 inhibition at different times after compound addition. […] To assess inhibitor membrane permeability transport of UTAinh-E02 and UTAinh-F11 across MDCK monolayers grown on porous filters by LC/MS was measured. Transport of UTAinh-F11 was much faster than that of UTAinh-E02 (FIG. 3C, right lower panel), with computed transepithelial permeability coefficients of […] and 1.1×10^−5 cm/s, respectively. From surface-to-volume considerations, the equilibration times were computed of UTAinh-E02 and UTAinh-F11 to be 250 and 14 s, respectively, in MDCK cells, which are consistent with intracellular sites of action of both inhibitors.

CC(=O)Nc1ccc(-c2csc(-c3c[nH]c4ccccc34)n2)cc1 [UTA1inh-E02, N-(4-(2-(1H-indol-3-yl)thiazol-4-yl)phenyl)acetamide]
solubility (Solubility; in words, vehicle selection): limited solubility | solubility (Solubility; read-out: solubility limit): ~25 µM (≈ 8.34 µg/mL) | inhibition of transepithelial urea transport (UT-A1): ~50% | toxicity (MDCK cells): little toxicity | equilibration time in MDCK cells (MDCK cell monolayers): 250 s

COc1ccc(C)cc1S(=O)(=O)Nc1ccc(Cl)c(N2CCCS2(=O)=O)c1 [UTA1inh-F11, N-[4-Chloro-3-(1,1-dioxido-1,2-thiazolidin-2-yl)phenyl]-2-methoxy-5-methylbenzene-sulfonamide]
solubility (Solubility; in words, vehicle selection): dissolved well in 20% dimethylacetamide, 0.6 mg/mL NaOH in saline | solubility (Solubility; read-out: solubility limit): ~25 µM (≈ 10.8 µg/mL) | inhibition of transepithelial urea transport (UT-A1): ~50% | toxicity (MDCK cells): little toxicity | equilibration time in MDCK cells (MDCK cell monolayers): 14 s
